Assays:
[1] = biological target: T1, KRAS G12D-SOS1 (Homo sapiens, UniProt P01116, G12D); assay: Blocking of KRAS G12D-SOS1 protein binding (Cisbio KRAS-G12D/SOS1 Binding Assay Kit, time-resolved fluorescence); details: KRAS G12D-GTP and SOS1 protein, signal ratio 665nm/620nm; read-out: G12D SOS1 biochemical IC50
T1 construct: purchased Cisbio 63ADK000CB17PEG
Excerpt: • 1. Experimental objective: […] Experimental reagents and instruments The centrifuge (5810R) was purchased from Eppendorf; the pipette was purchased from Eppendorf or Rainin; and the microplate reader was purchased from BioTek (United States) with a model of SynergyH1 multifunctional microplate reader. KRAS-G12D/SOS1 Binding Assay Kit was purchased from Cisbio, with a catalog number of 63ADK000CB17PEG; GTP was purchased from Sigma, with a catalog number of G8877; 384-well plate was purchased from Perkin Elmer, with a catalog number of 6007299. The Diluent buffer in the kit was used to dilute the compound into 10× compound solution of different concentrations, and 2 uL was added to each well of the 384-well plate. Tag2-KRAS G12D protein and GTP were formulated into a mixed solution of 5×KRAS G12D-GTP protein using Diluent buffer, and Tag1-SOS1 protein was formulated into a 5×SOS1 protein solution using Diluent buffer. Each solution was added to the 384-well plate separately at 4 uL per well, and incubated at room temperature for 15 min. A mixed solution of 2× anti-Tag1-Tb^3+ and anti-Tag2-XL665 formulated using detection buffer was added to the 384-well plate at 10 µL per well, and incubated at 4°C in the dark for 3 h.

[2] = biological target: KRAS WT (Homo sapiens, UniProt P01116); assay: KRAS WT biochemical assay (Table 1, no method of its own); assay type: binding; details: read-out: KRAS WT Biochemical IC50
Sequence of KRAS WT (P01116 1-188 isoform P01116-2): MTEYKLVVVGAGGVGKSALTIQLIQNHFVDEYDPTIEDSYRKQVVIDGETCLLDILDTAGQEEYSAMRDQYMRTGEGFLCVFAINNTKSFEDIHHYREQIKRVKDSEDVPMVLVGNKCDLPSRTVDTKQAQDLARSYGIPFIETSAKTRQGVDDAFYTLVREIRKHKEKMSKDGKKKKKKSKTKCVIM

[3] = system: GP2D; assay: Inhibition of proliferation of KRAS G12D mutant tumor cell line GP2D (CellTiter-Glo); details: Homo sapiens, GP2d, 72 h, read-out: GP2D IC50
[4] = system: AsPC-1; assay: Inhibition of proliferation of KRAS G12D mutant tumor cell line AsPC-1 (CellTiter-Glo); assay type: cell-based; details: Homo sapiens, ASPC1, about 72 h
In short: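 KRAS G12D-mutant AsPC-1 cells plated overnight at 37 °C/5% CO2, then exposed to serial compound dilutions (DMSO/medium, vehicle control) for about 72 h. Viability read by CellTiter-Glo luminescence; inhibition rate vs concentration fitted by nonlinear regression for IC50.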

[5] = Pharmacokinetic determination in mice (IV and PO, plasma, LCMS/MS); assay type: in vivo, Balb/c mice; details: male, Balb/c, mouse, in vivo, iv, 1 mg/kg
In short: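 Male Balb/c mice, fasted overnight (n=3 per route): PO 30 mg/kg in 10% Captisol/50 mM citrate pH 5.0, or IV 1 mg/kg in 5% DMSO/10% Solutol HS15/85% PBS. Orbital blood sampled predose to 24 h; EDTA plasma analysed by LC-MS/MS.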

T1 sequence (P01116 1-188 isoform P01116-2 G12D): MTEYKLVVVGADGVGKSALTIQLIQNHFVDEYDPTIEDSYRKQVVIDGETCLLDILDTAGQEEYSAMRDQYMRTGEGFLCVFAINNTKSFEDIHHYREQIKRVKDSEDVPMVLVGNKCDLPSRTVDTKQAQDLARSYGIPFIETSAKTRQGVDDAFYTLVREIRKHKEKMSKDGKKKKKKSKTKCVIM

Row | Structure (SMILES) | IC50 [1] [nM] | IC50 [2] [nM] | IC50 [3] [nM] | IC50 [4] [nM] | AUC [5] [ng·h/mL] | C0 [5] [ng/mL] | clearance [5] [mL/min/kg] | half-life [5] [h]
1 | C#Cc1c(F)ccc2cc(O)cc(-c3nc4c5c(nc(OCC6(CN7CCC(=C(F)F)C7)CC6)nc5c3F)N3CC5CCC(N5)C3CO4)c12 (centres unmarked) [Example 14-1] | 4.3 | 153 | 1.5 | – | – | – | – | –
2 | C#Cc1c(F)ccc2cc(O)cc(-c3nc4c5c(nc(OCC6(CN7CCC(=NOC)CC7)CC6)nc5c3F)N3CC5CCC(N5)C3CO4)c12 [Example 21-1, 1-((1-((((5aS,6S,9R)-2-(8-ethynyl-7-fluoro-3-hydroxylnaphthalen-1-yl)-1-fluoro-5a,6,7,8,9,10-hexahydro-5H-4-oxa-3,10a,11,13,14-pentaaza-6,9-methylnaphtho[1,8-ab]hept-12-yl)oxy)methyl)cyclopropyl)methyl)piperidine-4-one-oxo-methyloxime] | 1.9 | 60 | 0.75 | 3.1 | 253 | 939 | 14.1 | 9.1
3 | C#Cc1c(F)ccc2cc(O)cc(-c3nc4c5c(nc(OCC6(CN7CCC(=CF)C7)CC6)nc5c3F)N3CC5CCC(N5)C3CO4)c12 (centres unmarked) [Example 15-1] | 3 | 26 | 0.76 | – | – | – | – | –

From patent EP4635958A1, “PYRIMIDINE-CONTAINING POLYCYCLIC DERIVATIVE INHIBITOR, AND PREPARATION METHOD THEREFOR AND USE THEREOF” (Shanghai Hansoh Biomedical Co., Ltd., priority 2022, dated 2024)
